pEC50, pKi: −log10 of the molar value.
Tests used:
human O-GlcNAcase = human O-GlcNAcase (Homo sapiens (Human), UniProt O60502); test: Fluorescence-based assay for determination of KI values for inhibition of O-GlcNAcase activity; assay type: biochemical; conditions: purified human O-GlcNAcase 0.7 nM, 2 mM 4-Methylumbelliferyl N-acetyl-β-D-glucosaminide, pH 7.0, Cheng-Prusoff; read-out: Fluorescence-based hOGA Ki
Description: Assay for Determination of KIValues for Inhibition of O-GlcNAcase Activity Experimental procedure for kinetic analyses: Enzymatic reactions were carried out in a reaction containing 50 mM NaH2PO4, 100 mM NaCl and 0.1% BSA (pH 7.0) using 2 mM 4-Methylumbelliferyl N-acetyl-β-D-glucosaminide dihydrate (Sigma M2133) dissolved in ddH2O, as a substrate. The amount of purified human O-GlcNAcase enzyme used in the reaction was 0.7 nM. Test compound of varying concentrations was added to the enzyme prior to initiation of the reaction. The reaction was performed at room temperature in a 96-well plate and was initiated with the addition of substrate. […] The slope of product production was determined for each concentration of compound tested and plotted, using standard curve fitting algorithms for sigmoidal dose response curves. The values for a four parameter logistic curve fit of the data were determined.

[1] = test system: O-GlcNAcase in rat PC-12 cells; test: Cell-based ELISA for cellular O-GlcNAcase inhibition (O-GlcNAcylated protein, RL-2 antibody); conditions: 24 h treatment, O-GlcNAcylated protein detected with RL-2 antibody
Source text: Assay for Determination of Cellular Activity for Compounds that Inhibit O-GlcNAcase Activity
Inhibition of O-GlcNAcase, which removes O-GlcNAc from cellular proteins, results in an increase in the level of O-GlcNAcylated protein in cells. An increase in O-GlcNAcylated protein can be measured by an antibody, such as RL-2, that binds to O-GlcNAcylated protein. The amount of O-GlcNAcylated protein:RL2 antibody interaction can be measured by enzyme linked immunosorbant assay (ELISA) procedures.
A variety of tissue culture cell lines, expressing endogenous levels of O-GlcNAcase, can be utilized; examples include rat PC-12, and human U-87, or SK-N-SH cells. […] If desired, the total protein concentration of samples was determined using 20 μL of the sample using the BCA method.
The ELISA portion of the assay was performed in a black Maxisorp 96-well plate that was coated overnight at 4° C. with 100 μL/well of the cell lysate (1:10 dilution of the lysate with PBS containing protease inhibitors, phosphatase inhibitors, and PMSF). […] The detection reaction was incubated for 15 minutes at room temperature and then read with excitation at 530 nm and emission at 590 nm
The amount of O-GlcNAcylated protein, as detected by the ELISA assay, was plotted for each concentration of test compound using standard curve fitting algorithms for sigmoidal dose response curves. […]

human O-GlcNAcase, sequence (O60502 whole entry): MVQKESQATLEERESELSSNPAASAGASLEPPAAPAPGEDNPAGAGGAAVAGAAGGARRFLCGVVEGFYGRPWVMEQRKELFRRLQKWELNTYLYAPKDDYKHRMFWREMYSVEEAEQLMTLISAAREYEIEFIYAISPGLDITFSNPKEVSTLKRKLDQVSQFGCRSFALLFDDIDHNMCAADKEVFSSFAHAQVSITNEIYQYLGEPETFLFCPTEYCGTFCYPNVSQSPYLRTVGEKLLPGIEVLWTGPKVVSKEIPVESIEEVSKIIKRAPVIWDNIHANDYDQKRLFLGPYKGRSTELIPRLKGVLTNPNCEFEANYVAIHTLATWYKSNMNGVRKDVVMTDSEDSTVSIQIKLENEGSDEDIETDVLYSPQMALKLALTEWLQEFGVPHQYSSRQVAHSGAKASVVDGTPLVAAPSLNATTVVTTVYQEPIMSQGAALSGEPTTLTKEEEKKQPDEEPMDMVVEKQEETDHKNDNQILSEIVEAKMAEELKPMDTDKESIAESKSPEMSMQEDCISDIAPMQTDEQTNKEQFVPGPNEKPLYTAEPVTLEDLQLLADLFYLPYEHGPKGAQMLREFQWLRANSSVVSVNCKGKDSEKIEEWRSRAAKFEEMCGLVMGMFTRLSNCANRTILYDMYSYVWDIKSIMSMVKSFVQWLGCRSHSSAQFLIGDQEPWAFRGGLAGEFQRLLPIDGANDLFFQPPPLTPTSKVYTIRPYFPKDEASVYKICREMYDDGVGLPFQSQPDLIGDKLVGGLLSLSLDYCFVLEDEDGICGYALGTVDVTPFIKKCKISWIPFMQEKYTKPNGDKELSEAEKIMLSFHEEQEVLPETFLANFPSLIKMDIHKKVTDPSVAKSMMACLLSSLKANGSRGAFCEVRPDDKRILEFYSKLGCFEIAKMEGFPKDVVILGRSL

Row | Structure (SMILES) | pKi (human O-GlcNAcase) | pEC50 [1]
1 | CN(C)C1=N[C@@H]2[C@@H](O)[C@@H](O)[C@@H](CO)O[C@@H]2S1 [Example 2, (3aR,5R,6R,7R,7aR)-2-(dimethylamino)-5-(hydroxymethyl)-5,6,7,7a-tetrahydro-3aH-pyrano[3,2-d]thiazole-6,7-diol] | 7.54 | 
2 | CNC1=N[C@@H]2[C@H](O)[C@H](O)[C@@H](CO)O[C@@H]2S1 [Example 4, (3aR,5R,6S,7S,7aR)-5-(hydroxymethyl)-2-(methylamino)-5,6,7,7a-tetrahydro-3aH-pyrano[3,2-d]thiazole-6,7-diol] |  | 6.96
